Consider eleven compounds from patent US5753647A, “Acylamino-substituted hetrazepines” (Boehringer Ingelheim KG, priority 1991, dated 1998).

The pKi is the Ki on a negative log10 scale, so that one unit is a factor of ten.

pKi: −log10 of the molar value. Where two headings read alike, the source gives them in different places.

Experiment [1] addresses T1, PAF receptor on washed human platelets (Homo sapiens, UniProt P25105).
T1 construct: endogenous in cells; host or cells: human blood platelets (thrombocytes) from healthy donors, purified by Sepharose CL-2B chromatography
Kind of experiment: [^3 H]PAF-receptor binding to vital human blood platelets. The conditions noted are these: vital human thrombocytes. As for the experimental part: [^3 H]PAF-Receptor-Bonding to Vital Human Blood Platelets
The competitive interaction of test substances (here PAF-antagonists) with the known interaction of the radioligand [^3 H]PAF to the same receptor is determined. The binding studies are carried out on vital human thrombocytes. Blood samples from healthy donors were diluted with ACD-buffer and centrifuged (15 min., 160×g). The platelet-rich plasma is purified by chromatography on Sepharose CL-2B [using HEPES-buffer, pH 7.4 at 20° C. for eluting].
Defined quantities [e.g. 800 μl] of the platelet suspension were incubated for 90 minutes at ambient temperature, i.e. mixed with: a) a 30 picomolar [^3 H]PAF-solution diluted with buffer. b) a 30 picomolar [3 H] PAF-solution which simultaneously contains a μ-molar (unlabelled) PAF-solution, c) with the 30 picomolar [^3 H]PAF-solution and the solutions of the test substances (different concentrations) d) used to determine total binding, e) used to determine non-specific binding.
The reaction was stopped by vacuum filtration. The filters with the blood platelets were mixed with scintillation liquid and the residual radioactivity measured in a counter.
The specific binding is obtained from the total binding minus the nonspecific binding. Either the IC50 values (i.e. the concentration of test substance which displaces 50% of the radioligand--in this case [^3 H] PAF--from the receptor) is determined and this is specified, or the Ki -values are calculated from this. This may be done by computer-aided calculation using an iteration process of the binding curves. IC50 and Ki-values are a measurement of the receptor affinity of the test substance. Lower values indicate a higher affinity.

Experiment [2] concerns the target T1, PAF receptor on washed human platelets. The conditions noted are these: as known from the prior art (EP 367 110); read-out: binding value Ki of prior art compound; cited from earlier work.

T1 sequence (P25105 whole entry): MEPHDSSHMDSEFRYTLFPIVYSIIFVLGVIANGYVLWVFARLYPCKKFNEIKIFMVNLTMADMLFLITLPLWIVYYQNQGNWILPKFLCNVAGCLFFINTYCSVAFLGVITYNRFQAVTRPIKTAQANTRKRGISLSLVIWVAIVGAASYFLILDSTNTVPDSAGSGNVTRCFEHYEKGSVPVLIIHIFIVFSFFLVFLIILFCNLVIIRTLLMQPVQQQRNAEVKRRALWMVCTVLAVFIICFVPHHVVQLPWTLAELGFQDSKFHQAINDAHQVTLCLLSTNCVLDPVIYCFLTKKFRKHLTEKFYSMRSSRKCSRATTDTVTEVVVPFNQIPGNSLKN

In turn, “3-(4-Isobutylbenzoyl)-6-(2-chlorophenyl)-8,11-dimethyl-2,3,4,5-tetrahydro-4H-pyrido[4,3:4',5']thieno-[3,2-f][1,2,4]triazolo[4,3-a]1,4diazepine [Example 2]” showed a pKi in experiment [1] of 8.74. On to `Cc1nnc2n1-c1sc3c(c1C(c1ccccc1Cl)=NC2)CCN(C(=O)C1CC1)C3` [3-cyclopropylcarbonyl-6-(2-chlorophenyl)-11-methyl-2,3,4,5-tetrahydro-4H-pyrido-[4,3:4',5']thieno[3,2-f][1,2,4]triazolo[4,3-a]-1,4-diazepine], for which, in experiment [2], the pKi was 7.89. `Cc1nnc2n1-c1sc3c(c1C(c1ccccc1Cl)=NC2C)CCN(C(=O)c1ccc(Cl)cc1)C3` (centres unmarked) [Example 1, 3-(4-Chlorobenzoyl)-6-(2-chlorophenyl)-8,11-dimethyl-2,3,4,5-tetrahydro-4H-pyrido[4,3 :4',5']thieno-[3,2-f][1,2,4]triazolo[4,3-a]-1,4-diazepine] had a negative logarithm of the Ki (pKi) in experiment [1] of 8.54. Still for that read-out and setting: under `Cc1nnc2n1-c1sc3c(c1C(c1ccccc1Cl)=NC2C)CCN(C(=O)c1ccc(Cl)cc1)C3` (centres unmarked) [Example 1a] stands 8.72; under `Cc1nnc2n1-c1sc3c(c1C(c1ccccc1Cl)=NC2C)CCN(C(=O)c1ccc(Cl)cc1)C3` (centres unmarked) [Example 1b], 7.15. Still for that read-out and setting: under `Cc1ccc(C(=O)N2CCc3c(sc4c3C(c3ccccc3Cl)=NC(C)c3nnc(C)n3-4)C2)cc1` (centres unmarked) [Example 20] stands 7.66. On the same count and under the same terms, as for `Cc1nnc2n1-c1sc3c(c1C(c1ccccc1Cl)=NC2C)CCN(C(=O)c1ccc(C(C)(C)C)cc1)C3` (centres unmarked) [Example 25], the figure is 8.62. As for `COc1ccc(C(=O)N2CCc3c(sc4c3C(c3ccccc3Cl)=NC(C)c3nnc(C)n3-4)C2)cc1` (centres unmarked) [Example 29], the pKi in experiment [1] was 8.11. On the same count and under the same terms, as for `Cc1nnc2n1-c1sc3c(c1C(c1ccccc1Cl)=NC2C)CCN(C(=O)c1ccc(C(F)(F)F)cc1)C3` (centres unmarked) [Example 67], the figure is 8.55; as for `Cc1nnc2n1-c1sc3c(c1C(c1ccccc1Cl)=NC2C)CCN(C(=O)C(C)(C)C)C3` (centres unmarked) [Example 73], 8.00; as for `CCc1ccc(C(=O)N2CCc3c(sc4c3C(c3ccccc3Cl)=NC(C)c3nnc(C)n3-4)C2)cc1` (centres unmarked) [Example 82], 8.60.
